The values below come from publication PMC3372685 (Biochemical Pharmacology, 2012).

Test [1] addresses T1, zebrafish α4β2 nAChR (Danio rerio, UniProt E7F4S7+Q0PJT8). Description: Agonist-evoked responses, two-electrode voltage clamp in Xenopus oocytes. Type of test: cell-based. The conditions noted are these: for Activation of α4β2 receptors by probe concentration: 30 µM 4OH-GTS-21 and tropane, 300 µM choline; for Emax: read-out: Imax.
For test [2], the target named is T2, zebrafish α7 nAChR (Danio rerio, UniProt Q800C7). The test is described as above. Type of test: cell-based. The conditions noted are these: for Activation of fish α7 nAChR: prototypical α7-selective agonists; for Emax: read-out: Imax; for Agonist type compared to ACh: α7.
Test [3] has as its system zebrafish heteromeric nAChR subtypes (α3β4, α1β1bεδ, α2β2, α4β2). In kind it is cell-based, zebrafish (Danio rerio). The conditions noted are these: co-application, 30 µM 4OH-GTS-21 and tropane, 300 µM choline.
In test [4] the target is T3, zebrafish α3β4F106Y nAChR (Danio rerio, UniProt A0A0R4ISQ3+A0A8M1QHJ5, F140Y). Nature of the test: cell-based.
Test [5] has as its target T4, zebrafish α3β4 nAChR (Danio rerio, UniProt A0A0R4ISQ3+A0A8M1QHJ5). Description: Agonist-evoked responses, two-electrode voltage clamp in Xenopus oocytes. Particulars: for Emax: read-out: Imax; for Agonist type compared to ACh: α3β4. In kind it is cell-based.
Test [6] has as its system zebrafish. The conditions noted are these: cited from earlier work.
The subject of test [7] is zebrafish. Particulars: previous work; cited from earlier work.
The test system of another test is human α7 nAChR. Particulars: read-out: EC50 for human α7; used as probe concentration; cited from earlier work.
Test [8] deals with T5, zebrafish muscle α1β1bεδ nAChR (Danio rerio, UniProt A2BG85+G1FMP8+Q75XT1+Q98880). Description: cell-based. Particulars: read-out: Imax.
Test [9] deals with T5, zebrafish muscle α1β1bεδ nAChR. The conditions noted are these: for EC50: peak current amplitude.
The target in test [10] is T3, zebrafish α3β4F106Y nAChR.
For test [11], the target named is T6, zebrafish α2β2 nAChR (Danio rerio, UniProt A0ACM8Q9T8+E7F4S7). Description: cell-based.
In a further test the test system is rat α3β4 nAChR. The conditions noted are these: rat α3β4, co-application of 100 µM ACh with 3 µM mecamylamine; cited from earlier work.
Test [12] deals with T6, zebrafish α2β2 nAChR. Particulars: α2β2, ACh control after normal washout.
In test [13] the target is T2, zebrafish α7 nAChR. Nature of the test: cell-based.
Test [14] addresses T6, zebrafish α2β2 nAChR. Description: cell-based. This is another data set of the same source.
The subject of test [15] is human and zebrafish α3β4 and α4β2 nAChR. Type of test: cell-based. Particulars: α3β4 and α4β2, repeated application protocol, low concentration of mecamylamine.
Test [16] concerns zebrafish. The conditions noted are these: given 5 minutes before the task (not if 40 minutes prior); cited from earlier work.
For test [17], the system named is zebrafish. Particulars: cited from earlier work. The source holds these as a separate data set.
For test [18], the target named is T2, zebrafish α7 nAChR. The conditions noted are these: α7, data not shown.
In test [19] the target is T5, zebrafish muscle α1β1bεδ nAChR. Particulars: for IC50: α1β1bεδ, co-application with 30 µM ACh.
The target in test [20] is T1, zebrafish α4β2 nAChR. Particulars: α4β2, ACh control after normal washout.
Test [21] has as its target T4, zebrafish α3β4 nAChR. Nature of the test: Inhibition of ACh-evoked responses by co-applied mecamylamine in Xenopus oocytes. In kind it is cell-based.
Test [22] relates to zebrafish. The conditions noted are these: cited from earlier work. This is another data set of the same source.

Where two headings read alike, the source gives them in different places.

With `COc1cc(O)ccc1/C=C1\CCCN=C1c1cccnc1` [4OH-GTS-21, 3-(4-hydroxy, 2-methoxybenzylidene)anabaseine], the “Activation of α4β2 receptors by probe concentration” value (“Activation of α4β2 receptors” for short) on zebrafish α4β2 nAChR [1] was “evoked significant responses”. For the same molecule, the “Activation of fish α7 nAChR” value on zebrafish α7 nAChR [2] is listed as “activate”. In [3], the “Inhibition of ACh-evoked responses of heteromeric nAChR subtypes” value (shortened to “Inhibition … of heteromeric nAChR subtypes”) is reported as “inhibited all of the heteromeric receptors”.

For `CC(=O)OCC[N+](C)(C)C` [ACh, acetylcholine], the results for the EC50 (in test [4]; on zebrafish α7 nAChR [2]; at zebrafish α3β4 nAChR [5]) were 134 ± 5 µM, 39 ± 3 µM and 73 ± 3 µM, respectively.

Turning to `CO[C@H]1CC=C2CCN3CCC4=C(CC(=O)OC4)[C@]23C1` [DHβE, dihydro-beta-erythroidine], the “Effect on anxiolytic effects of nicotine” value with zebrafish [6] is “blocked”. Moreover, the “Effect on nicotine-induced increase in swimming activity” value with zebrafish [7] is “blocked”.

Take `CCN1C[C@]2(COC(=O)c3ccccc3N3C(=O)C[C@H](C)C3=O)CC[C@H](OC)[C@@]34[C@@H]5C[C@H]6[C@H](OC)[C@@H]5[C@](O)(C[C@@H]6OC)[C@@](O)([C@@H](OC)[C@H]23)[C@@H]14` [MLA, methyllycaconitine]: the “Effect on anxiolytic effects of nicotine” value in the test on zebrafish [6] is on record as “blocked”. In addition, in the test on zebrafish [7], the “Effect on nicotine-induced increase in swimming activity” value is reported as “blocked”.

`C[N+](C)(C)CCO` [choline]: in the test on human α7 nAChR, the EC50 is 300 µM. The “Activation of α4β2 receptors” value at zebrafish α4β2 nAChR [1] is recorded as “evoked significant responses”. Also, the “Activation of fish α7 nAChR” value on zebrafish α7 nAChR [2] is “activate”. The “Inhibition … of heteromeric nAChR subtypes” value in [3] is reported as “relatively ineffective”.

Regarding `O=c1cccc2n1C[C@@H]1CNC[C@H]2C1` [cytisine], the Emax came to 13 ± 0.3% in [8]; 26 ± 1% on zebrafish α4β2 nAChR [1]; 116 ± 6% on zebrafish α7 nAChR [2]; 9 ± 1% on zebrafish α2β2 nAChR [11] (read-out: Imax); 12 ± 0.2% at zebrafish α3β4 nAChR [5]. Also, the EC50 in test [9] came out at 460 ± 20 µM; on zebrafish α7 nAChR [2], 15 ± 3 µM; on zebrafish α2β2 nAChR [11], 4.1 ± 0.3 µM; on zebrafish α3β4 nAChR [5], 11 ± 1 µM. Moreover, the “Agonist type compared to ACh” value at zebrafish α7 nAChR [2] is “full agonist”; at zebrafish α3β4 nAChR [5], “relatively weak partial agonist”. Moreover, the “Relative amplitude of responses versus wild-type fish α3β4” value in test [10] (100 µM cytisine, relative to 100 µM ACh control responses) is listed as “significantly larger”. In test [10] (expressed relative to respective ACh maximums), the “Effect of the F106Y mutation on efficacy” value is given as “no significant effect”.

With `CNC1(C)C2CCC(C2)C1(C)C` (stereo not shown) [mecamylamine], the “Effect on anxiolytic effect of nicotine” value in the test on zebrafish [6] (200 mg/l mecamylamine) is recorded as “blocked”. The “Residual inhibition of ACh control responses following washout” value with rat α3β4 nAChR is 60%. Further, the “Mecamylamine concentration giving significant (>25%) residual inhibition” value on zebrafish α2β2 nAChR [12] is reported as at least 300 nM; on zebrafish α4β2 nAChR [20] it was at least 30 nM. For the same molecule, the IC50 against zebrafish α7 nAChR [13] (Net charge IC50, α7, co-application with 60 µM ACh) was determined as 13 ± 3 µM; against zebrafish α7 nAChR [13] (Peak current IC50, α7, co-application with 60 µM ACh), 28 ± 11 µM; against zebrafish α2β2 nAChR [14] (Net charge IC50, α2β2, co-application with 30 µM ACh) it was 3.5 ± 1.3 µM; against zebrafish α2β2 nAChR [14] (Peak current IC50, α2β2, co-application with 30 µM ACh), 3 ± 0.7 µM; in test [19] (read-out: Net charge IC50), 600 ± 70 nM; in test [19] (read-out: Peak current IC50) it was 1800 ± 210 nM. Moreover, the IC50 against zebrafish α3β4 nAChR [21] (Net charge IC50, α3β4, co-application with 100 µM ACh) is 50 ± 10 nM; at zebrafish α3β4 nAChR [21] (Peak current IC50, α3β4, co-application with 100 µM ACh), 600 ± 100 nM. Also, the “Inhibition of fish versus human receptor subtypes” value in test [15] is reported as “significantly greater (p < 0.01)”. The “Effect on nicotine-induced improvement in spatial learning task” value with zebrafish [16] is listed as “blocked this nicotine-induced improvement”. Further, the “Effect on nicotine-induced increase of dihydroxyphenylacetic acid” value in the test on zebrafish [17] is listed as “blocked”. The Reversibility of inhibition result is reported as “readily reversible” on zebrafish α7 nAChR [18]; “readily reversible” in test [19] (muscle-type receptors); “rapidly reversible” on zebrafish α3β4 nAChR [21] (α3β4, 3 µM mecamylamine).

With `CN1CCC[C@H]1c1cccnc1` [nicotine], the Emax in test [8] is 13 ± 3%; at zebrafish α4β2 nAChR [1], 70 ± 10%; at zebrafish α7 nAChR [2], 75 ± 4%; on zebrafish α3β4 nAChR [5] it was 17 ± 2%. Moreover, in the test on zebrafish [6] (100 mg/l), the “Effect in fish model of anxiety” value is “anxiolytic”. Further, the “Agonist type compared to ACh” value in test [9] was “partial agonist”; on zebrafish α4β2 nAChR [1] (α4β2), “partial agonist”; on zebrafish α7 nAChR [2], “full agonist”; on zebrafish α3β4 nAChR [5], “partial agonist”. Besides, the values for the EC50 (in [9]; on zebrafish α7 nAChR [2]; at zebrafish α3β4 nAChR [5]) were 140 ± 50 µM, 27 ± 6 µM and 13 ± 6 µM, respectively. In the test on zebrafish [17], the Dihydroxyphenylacetic acid levels result is given as “increases dihydroxyphenylacetic acid levels”. For the same molecule, the figures for the “Performance in delayed spatial alternation task” value with zebrafish [22] (high doses) and with zebrafish [22] (low doses (100 mg/l in the water)) were “impaired” and “improved performance”, respectively. For the same molecule, the Swimming activity result in the test with zebrafish [7] is “increases swimming activity”.

Consider `CN1[C@@H]2CCC[C@H]1CC2` [tropane], for which the “Activation of α4β2 receptors” value on zebrafish α4β2 nAChR [1] is given as “evoked significant responses”. Also, on zebrafish α7 nAChR [2], the “Activation of fish α7 nAChR” value is reported as “activate”. Besides, in test [3], the “Inhibition … of heteromeric nAChR subtypes” value is “effective at inhibiting the neuronal heteromeric receptor subtypes”.
